Literature values in patent US9969773B2, “Polymers, pharmaceutical compositions and methods of synthesizing the same” (NEW YORK UNIVERSITY, priority 2014, dated 2018).

For CC[C@H](C)[C@H](NC(=O)[C@H](CCC(=O)O)NC(=O)[C@H](CO)NC(=O)[C@@H](NC(=O)[C@@H](N)CO)C(C)C)C(=O)N[C@@H](CCC(N)=O)C(=O)N[C@@H](CC(C)C)C(=O)N[C@@H](CCSC)C(=O)N[C@@H](Cc1cnc[nH]1)C(=O)N[C@@H](CC(N)=O)C(=O)N[C@@H](CC(C)C)C(=O)NCC(=O)N[C@@H](CCCCN)C(=O)N[C@@H](Cc1cnc[nH]1)C(=O)N[C@@H](CC(C)C)C(=O)N[C@@H](CC(N)=O)C(=O)N[C@@H](CO)C(=O)N[C@@H](CCSC)C(=O)N[C@@H](CCC(=O)O)C(=O)N[C@@H](CCCN=C(N)N)C(=O)N[C@H](C(=O)N[C@@H](CCC(=O)O)C(=O)N[C@@H](Cc1c[nH]c2ccccc12)C(=O)N[C@@H](CC(C)C)C(=O)N[C@@H](CCCN=C(N)N)C(=O)N[C@@H](CCCCN)C(=O)N[C@@H](CCCCN)C(=O)N[C@@H](CC(C)C)C(=O)N[C@@H](CCC(N)=O)C(=O)N[C@@H](CC(=O)O)C(=O)N[C@H](C(=O)N[C@@H](Cc1cnc[nH]1)C(=O)N[C@@H](CC(N)=O)C(=O)N[C@@H](Cc1ccccc1)C(=O)O)C(C)C)C(C)C [PTH (1-34), parathyroid hormone (1-34)], which half-life in serum is on record?
Its half-life in serum is about 5 min.
